Experimental data reported in ChEMBL document CHEMBL1131750, “A substrate combinatorial array for caspases” (Bioorg Med Chem Lett, 1999).
Peptide text beside a SMILES is read from it. * marks the point of attachment. AMC = Cc1cc(=O)oc2cc(N*)ccc12

Tests used:
Format in all cases: ADME
[1] = Km value of Ac-YVAD-AMC substrate for compound
[2] = Kinetic Constant of Ac-YVAD-AMC for compound
[3] = Vmax value of Ac-YVAD-AMC substrate for compound
[4] = Kinetic Constant of Ac-WEAD-AMC for compound
[5] = Kinetic Constant of Ac-WVAD-AMC for compound

In the case of `CC(=O)NCC(=O)NCC(=O)N[C@@H](C)C(=O)N[C@@H](CC(=O)O)C(=O)Nc1ccc2c(C)cc(=O)oc2c1` (Ac-GGAD-{AMC}), the Km [1] is reported as 20 µM, the “Vmax / Km” value [2] is reported as 53 FU min-1 uM-1 and the Vmax [3] is reported as 1060 FU uM-1. For the same compound, the Km [4] was 9 µM, the Vmax [4] was 1840 FU uM-1 and the “Vmax / Km” value [4] was 204 FU min-1 uM-1. The Km [5] was 27 µM, the Vmax [5] was 1300 FU uM-1 and the “Vmax / Km” value [5] was 48 FU min-1 uM-1.
